Reference: the supplement of paper PMC9663587

What was measured:
[1] = compound: T1, CC(=O)c1c(C)c2cnc(Nc3ccc(N4CCN(CCOCCOCCOCCNC(=O)COc5cccc6c5C(=O)N(C5CCC(=O)NC5=O)C6=O)CC4)cn3)nc2n(C2CCCC2)c1=O [BSJ-03-123]
[2] = compound: COc1ccc2c(c1)[C@]1(C[C@H]1c1ccc3c(/C=C/c4ccc(CN5C[C@@H](C)O[C@@H](C)C5)cc4)n[nH]c3c1)C(=O)N2
[3] = compound: T2, CN(C)C(=O)c1cc2cnc(Nc3ccc(N4CCNCC4)cn3)nc2n1C1CCCC1 [LEE011/Ribociclib]
[4] = compound: CN(C)C/C=C/C(=O)Nc1ccc(C(=O)N2CCC[C@@H](Nc3ncc(Cl)c(-c4c[nH]c5ccccc45)n3)C2)cc1 [THZ531]
[5] = compound: T1, BSJ-03-123; experiment: GR value, 72 h; higher = faster growth (1 = untreated, <0 = killing);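 further: breast cancer and non-malignant breast epithelial lines, nine half-log doses, viable cells counted by Hoechst and LIVE/DEAD dye imaging versus time-zero plates and DMSO controls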
[6] = compound: C=CC(=O)Nc1ccc(C(=O)Nc2[nH]nc3c2CN(C(=O)N[C@H](CN(C)C)c2ccccc2)C3(C)C)cc1 [YKL-5-124]; experiment: as above
[7] = compound: T2, LEE011/Ribociclib; experiment: as above
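Wherever GR50, 72 h is given: breast cancer and non-malignant breast epithelial cell lines, Deep Dye Drop or Dye Drop imaging, nine half-log doses, GR normalized to time-zero plates and DMSO-only controls.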

PDX1206
GR50, 72 h [1]: 4.35 µM
GR50, 72 h [2]: 0.00708 µM
GR50, 72 h [3]: > 10 µM
GR50, 72 h [4]: 0.0456 µM
GR value ([5]; 0.001 µM): 1.02 GR
GR value ([5]; 0.003162 µM): 0.915 GR
GR value ([5]; 0.01 µM): 0.885 GR
GR value ([5]; 0.03162 µM): 0.967 GR
GR value ([5]; 0.1 µM): 0.904 GR
GR value ([5]; 0.3162 µM): 0.912 GR
GR value ([5]; 1 µM): 0.782 GR
GR value ([5]; 3.162 µM): 0.726 GR
GR value ([5]; 10 µM): -0.109 GR
GR value ([6]; 0.001 µM): 0.821 GR
GR value ([6]; 0.003162 µM): 0.683 GR
GR value ([6]; 0.01 µM): 0.588 GR
GR value ([6]; 0.03162 µM): 0.519 GR
GR value ([6]; 0.1 µM): 0.461 GR
GR value ([6]; 0.3162 µM): 0.444 GR
GR value ([6]; 1 µM): 0.323 GR
GR value ([6]; 3.162 µM): 0.205 GR
GR value ([6]; 10 µM): -0.502 GR
GR value ([7]; 0.001 µM): 0.899 GR
GR value ([7]; 0.003162 µM): 0.915 GR
GR value ([7]; 0.01 µM): 0.885 GR
GR value ([7]; 0.03162 µM): 0.915 GR
GR value ([7]; 0.1 µM): 0.758 GR
GR value ([7]; 0.3162 µM): 0.817 GR
GR value ([7]; 1 µM): 0.998 GR
GR value ([7]; 3.162 µM): 0.753 GR
GR value ([7]; 10 µM): 0.685 GR
